Measured values from the supplement of paper PMC10307832.

How the values were obtained:
Experiment in all cases: relative viability (nuclei count vs DMSO), 5 days (fraction); higher = more cells survive
[1] = tested on: HCC-15
Procedure, shortened: (§1)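 The day after seeding in 1536-well plates, lung cancer cell lines were treated by pin tool with a single drug, or with a fixed anchor-drug dose together with five library-drug doses (not always all listed) in √10 steps. After 5 days, a combined fix-and-stain solution (final 0.05% Triton X-100, 1% formaldehyde, 1 ug/ml Hoechst) was added. Nuclei counted on 4× images gave relative viability as treated counts over vehicle counts, reported as the median of duplicate plates.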

[2] = tested on: NCI-H1651
Procedure, shortened: as §1

[3] = tested on: EMC-BAC-2
Procedure, shortened: as §1

[4] = tested on: BEN
Procedure, shortened: as §1

[5] = tested on: NCI-H838
Procedure, shortened: as §1

[6] = tested on: NCI-H358
Procedure, shortened: as §1

[7] = tested on: NCI-H2023
Procedure, shortened: as §1

[8] = tested on: LK-2
Procedure, shortened: as §1

[9] = tested on: COR-L 105
Procedure, shortened: as §1

[10] = tested on: NCI-H322M
Procedure, shortened: as §1

[11] = tested on: ABC-1
Procedure, shortened: as §1

[12] = tested on: NCI-H1563
Procedure, shortened: as §1

[13] = tested on: NCI-H727
Procedure, shortened: as §1

[14] = tested on: 201T
Procedure, shortened: as §1

[15] = tested on: HCC-44
Procedure, shortened: as §1

[16] = tested on: NCI-H520
Procedure, shortened: as §1

[17] = tested on: CAL-12T
Procedure, shortened: as §1

[18] = tested on: NCI-H460
Procedure, shortened: as §1

[19] = tested on: EKVX
Procedure, shortened: as §1

[20] = tested on: LU99A
Procedure, shortened: as §1

[21] = tested on: PC-3 [JPC-3]
Procedure, shortened: as §1

CN1CCN(CCOc2cc(OC3CCOCC3)c3c(Nc4c(Cl)ccc5c4OCO5)ncnc3c2)CC1 [Saracatinib] + C[C@@H](Oc1cc(-c2cnn(C3CCNCC3)c2)cnc1N)c1c(Cl)ccc(F)c1Cl [Crizotinib] (partner 1 µM)
relative viability ([1]; first compound 0.02 µM): 0.817
relative viability ([1]; first compound 0.2 µM): 0.693
relative viability ([1]; first compound 0.6325 µM): 0.805
relative viability ([1]; first compound 2 µM): 0.765
relative viability ([2]; first compound 0.02 µM): 0.866
relative viability ([2]; first compound 0.2 µM): 0.802
relative viability ([2]; first compound 0.6325 µM): 0.923
relative viability ([2]; first compound 2 µM): 0.751
relative viability ([3]; first compound 0.02 µM): 0.701
relative viability ([3]; first compound 0.2 µM): 0.72
relative viability ([3]; first compound 0.6325 µM): 0.652
relative viability ([3]; first compound 2 µM): 0.463
relative viability ([4]; first compound 0.02 µM): 0.77
relative viability ([4]; first compound 0.2 µM): 0.738
relative viability ([4]; first compound 0.6325 µM): 0.911
relative viability ([4]; first compound 2 µM): 0.569
relative viability ([5]; first compound 0.02 µM): 0.818
relative viability ([5]; first compound 0.2 µM): 0.779
relative viability ([5]; first compound 0.6325 µM): 0.608
relative viability ([5]; first compound 2 µM): 0.582
relative viability ([6]; first compound 0.02 µM): 0.54
relative viability ([6]; first compound 0.2 µM): 0.611
relative viability ([6]; first compound 0.6325 µM): 0.376
relative viability ([6]; first compound 2 µM): 0.251
relative viability ([7]; first compound 0.02 µM): 0.769
relative viability ([7]; first compound 0.2 µM): 0.428
relative viability ([7]; first compound 0.6325 µM): 0.391
relative viability ([7]; first compound 2 µM): 0.356
relative viability ([8]; first compound 0.02 µM): 0.253
relative viability ([8]; first compound 0.2 µM): 0.225
relative viability ([8]; first compound 0.6325 µM): 0.196
relative viability ([8]; first compound 2 µM): 0.201
relative viability ([9]; first compound 0.02 µM): 0.881
relative viability ([9]; first compound 0.2 µM): 0.763
relative viability ([9]; first compound 0.6325 µM): 0.459
relative viability ([9]; first compound 2 µM): 0.252
relative viability ([10]; first compound 0.02 µM): 0.971
relative viability ([10]; first compound 0.2 µM): 0.831
relative viability ([10]; first compound 0.6325 µM): 0.916
relative viability ([10]; first compound 2 µM): 0.6
relative viability ([11]; first compound 0.02 µM): 1.1
relative viability ([11]; first compound 0.2 µM): 1.06
relative viability ([11]; first compound 0.6325 µM): 0.918
relative viability ([11]; first compound 2 µM): 0.705
relative viability ([12]; first compound 0.02 µM): 0.905
relative viability ([12]; first compound 0.2 µM): 0.778
relative viability ([12]; first compound 0.6325 µM): 0.677
relative viability ([12]; first compound 2 µM): 0.635
relative viability ([13]; first compound 0.02 µM): 0.904
relative viability ([13]; first compound 0.2 µM): 0.452
relative viability ([13]; first compound 0.6325 µM): 0.617
relative viability ([13]; first compound 2 µM): 0.378
relative viability ([14]; first compound 0.02 µM): 1.05
relative viability ([14]; first compound 0.2 µM): 0.946
relative viability ([14]; first compound 0.6325 µM): 0.962
relative viability ([14]; first compound 2 µM): 0.862
relative viability ([15]; first compound 0.02 µM): 0.859
relative viability ([15]; first compound 0.2 µM): 0.738
relative viability ([15]; first compound 0.6325 µM): 0.952
relative viability ([15]; first compound 2 µM): 1.01
relative viability ([16]; first compound 0.02 µM): 0.74
relative viability ([16]; first compound 0.2 µM): 0.732
relative viability ([16]; first compound 0.6325 µM): 0.531
relative viability ([16]; first compound 2 µM): 0.37
relative viability ([17]; first compound 0.02 µM): 0.649
relative viability ([17]; first compound 0.2 µM): 0.522
relative viability ([17]; first compound 0.6325 µM): 0.746
relative viability ([17]; first compound 2 µM): 0.367
relative viability ([18]; first compound 0.02 µM): 0.97
relative viability ([18]; first compound 0.2 µM): 0.501
relative viability ([18]; first compound 0.6325 µM): 0.696
relative viability ([18]; first compound 2 µM): 0.566
relative viability ([19]; first compound 0.02 µM): 0.927
relative viability ([19]; first compound 0.2 µM): 0.865
relative viability ([19]; first compound 0.6325 µM): 0.596
relative viability ([19]; first compound 2 µM): 0.302
relative viability ([20]; first compound 0.02 µM): 0.664
relative viability ([20]; first compound 0.2 µM): 0.377
relative viability ([20]; first compound 0.6325 µM): 0.487
relative viability ([20]; first compound 2 µM): 0.39
relative viability ([21]; first compound 0.02 µM): 0.997
relative viability ([21]; first compound 0.2 µM): 0.983
relative viability ([21]; first compound 0.6325 µM): 0.942
relative viability ([21]; first compound 2 µM): 0.582
